Source: patent USRE38825E1, “Glyphosate tolerant plants” (Monsanto Technology LLC, priority 1990, dated 2005)

Tests used:
[1] = molecular target: LBAA glyphosate oxidoreductase variant v.247 (v1v2v3: GLY84, ARG153, ARG334), SEQ ID NO:18 (Ochrobactrum sp. G-1, UniProt D2KI28, H334R/K153R/S2A/S84G); test: Kinetic analysis of glyphosate oxidoreductase variant v.247; assay type: biochemical, bacterial isolate LBAA (Pseudomonas strain LBAA)
Protocol: The mutagenesis procedure used was that of Mn++-poisoned PCR and the template was a linearized glyphosate oxidoreductase gene plasmid containing the synthetic glyphosate oxidoreductase gene (SEQ ID NO:8). The oligonucleotide primers used were homologous to regions in the vector and flanking the glyphosate oxidoreductase gene. The PCR conditions employed were as follows: 1 minute at 94° C., 2 minutes at 55° C., and 3 minutes at 72° C. and with 35 cycles. A 5:1 ratio of dCTP+dGTP+TTP to dATP was used. The reactions contained MnCl2 at 125, 250, 375, or 500 μM. After the reaction, the amplified product was recloned into a vector containing a weak E. coli promoter. This vector was a pBR327 derivative containing the araBAD promoter and suitable cloning sites. One hundred colonies from this cloning step were then screened in E. coli GB993 for improved glyphosate tolerance and utilization phenotypes in media composed of MOPS minimal medium with glyphosate and Pi or with glyphosate alone, respectively. Growth rates were determined by measuring A550 over a 96 hour period. […] The glyphosate oxidoreductase gene was recloned into the expression vector portion and this phenotype verified. All kinetic analysis was performed on crude E. coli lysates. Putative glyphosate oxidoreductase variant proteins were overexpressed after subcloning the NcoI/HindIII variant glyphosate oxidoreductase gene into PrecA-gene10L expression vector. For overexpression in PrecA-gene10L constructs, GB993 cells containing the vector were induced at a Klett=110-120 in M9 minimal medium with 50 μg/ml nalidixic acid and allowed to grow for 2.5 hours at 37° C. with vigorous shaking. Cells were harvested by centrifugation at 4000 g, 5 minutes at 4° C., and resuspend in 100 mM Tris-HCl, pH 7.1, 1 mM EDTA, 35 mM KCl, 20% glycerol, and 1 mM benzamidine at 3 ml/g cell pellet. Lysates were prepared by breaking the cells in a French press, twice, at 1000 psi. Insoluble debris was removed by centrifugation at 12000 g, 15 minutes at 4° C., and the supernatant was de-salted by passing over a PD-10 column (Sephadex G-25, Pharmacia). The void volume fraction was used as the source of enzyme for kinetic analysis. Protein concentrations were determined using the Bio-Rad protein dye-binding assay. Time and enzyme concentration courses were performed to determine linear ranges. […] Ten minutes was determined to be the optimal time for the enzyme assay using 10 μg lysate. After 10 minutes at 30° C. with shaking, 0.25 ml dinitrophenylhydrazine (DNPH) reagent (0.5 mg/ml in 0.5M HCl) was added and the reaction was allowed to proceed for an additional 5 minutes at 30° C. with shaking. A 1.5M NaOH solution (400 μl) was then added to the assay mix, and the reaction was continued for 5 minutes at 30° C. with shaking. Enzyme activity was determined from the amount of glyoxylate-DNPH adduct formed by measuring A520 against a standard of glyoxylate. Enzyme assays are performed in duplicate on at least two different single colony isolates of a putative glyphosate oxidoreductase variant. To determine Km and Vmax, enzyme assays were performed over a (0.2-2.0)×Km range of glyphosate concentrations. The Km and Vmax were determined from Lineweaver Burk, Eadie-Hofstee and hyperbolic kinetic plots. Vmax was estimated after determining the amount of immunoreactive glyphosate oxidoreductase protein in lysates by immunoblot analysis as described below. Immunoblot analysis was performed following SDS-PAGE and transfer of protein from the gel to nitrocellulose at 500 mA in a Hoeffer transfer apparatus in 25 mM Tris-HCl, 192 mM glycine containing 0.1% SDS and 25% methanol for 1-2 hours. After transfer, the nitrocellulose was incubated with 50 mM Tris-HCl, pH7.5, 0.9% NaCl, 0.01% Tween 20, 0.02% NaN3 containing 2% bovine serum albumin at room temperature with shaking for at least 30 minutes. […]

[2] = test system: Agrobacterium sp. strain T10 glyphosate oxidoreductase; test: Km of glyphosate oxidoreductase from Agrobacterium sp. strain T10; assay type: biochemical
Protocol: A population of bacteria was isolated from a fixed-bed immobilized cell column, which employed Mannville R-635 diatomaceous earth beads, by plating on Tryptone Soy Agar (Difco), containing cylcoheximide at 100 ug/ml, and incubating at 28° C. The column had been run for three months on a waste-water feed from the Monsanto Company's Luling, MS, glyphosate production plant. The column contained 50 mg/ml glyphosate and NH3 as NH4Cl. Total organic carbon was 300 mg/ml and BOD's (Biological Oxygen Demand—a measure of “soft” carbon availability) was less than 30 mg/ml. This treatment column has been described (Heitkamp et al., 1990). […] Chromosomal DNA was prepared from this isolate and subjected to the same PCR procedure and with the same primers as described above for the strain LBr. A fragment of the correct size was generated and cloned into the E. coli expression vector. The glyphosate oxidoreductase activity was assayed and the Km for glyphosate also determined: […]

O=C(O)CNCP(=O)(O)O [glyphosate, N-phosphonomethyl-glycine]
VmKm ([1]; domain switch experiment, v.247 (v1v2v3), substrate glyphosate): 0.34 | VmKm (Glyp) ([1]; v.247): .23 | lower Km for glyphosate than the wild type glyphosate oxidoreductase ([1]; v.247 versus wild type): 10 fold | app Vm (Glyp) ([1]; v.247, pH 7.4, 30° C.): 0.6 U/mg | Km [2]: 28 mM
